Read-outs that look alike come from different tables or passages of the source.

This is an account of results in US20020077296A1, “High-throughput screening method” (priority 2000, published 2002).

Experiment [1] concerns the target T1, Rho-kinase (Bos taurus, UniProt Q28021).
T1 construct: thus detecting the band of Rho-kinase at around 160 kDa; tissue Shiraimatsu; host or cells: bovine brain (cerebral gray matter) extract
Briefly: antibody plate assay: Rho-kinase immobilized from bovine brain extract, phosphorylation of Histone HF2A. The format is biochemical. To be noted: Histone HF2A substrate, [33P]ATP, reaction time four hours. The procedure:
After allowed to stand for 1.5 hours at room temperature, the solution was removed, and 200 μl of blocking solution in which Block Ace (DAINIPPON PHARMACEUTICAL) UK-B25 was diluted four times with PBS(−)) was added into the plate, followed by stirring the solution therein. The plate was allowed to stand for additional 1.5 hours at room temperature, washed three times with 200 μl of PBST (0.05% Tween20/PBS(−)), and added with a 0.1 μg/50 μl solution of anti-Rho-kinase antibody in PBS(−).
(§1) ATP/30 μl. […] The reaction time was four hours.
(§2) SPA Multiscreen method was used for the estimation of the plate.
The inhibitory activity of these inhibitors was determined based on the radioactivity showing the phosphorylation that was detected in the antibody plate assay system, and compared to those previously reported, so that the plate was estimated in terms of the usefulness in a screening system for discovering inhibitors.

In another experiment the target is T2, ROKa/ROK-II, active Cat (Rattus norvegicus, UniProt Q62868).
T2 construct: purchased Upstate
The experiment can be described thus: phosphorylation assay with ROKa/ROK-II, active Cat (Upstate) under a similar condition. The format is biochemical. The method, then:
as §1, §2

In experiment [2] the target is Rho-kinase. Conditions: read-out: Ki value; cited from earlier work.
Experiment [3] concerns Rho-kinase. The experiment can be described thus: inhibition of the binding of Rho-kinase to anti-Rho-kinase antibody-immobilized plate. Also on record: species or system bovine. The method, then: Fifty μl of the dilution of the rabbit anti-goat IgG/Fc (Nippon Chemi-Con Corp.) in PBS(−) was pipetted into Immunoplate II (Nunc, 442404, High binding capacity) or a fluorescence/luminescence solid assay plate (COSTAR, 3922 white). After allowed to stand for 1.5 hours at room temperature, the solution was removed, and 200 μl of blocking solution in which Block Ace (DAINIPPON PHARMACEUTICAL) UK-B25 was diluted four times with PBS(−)) was added into the plate, followed by stirring the solution therein. The plate was allowed to stand for additional 1.5 hours at room temperature, washed three times with 200 μl of PBST (0.05% Tween20/PBS(−)), and added with a 0.1 μg/50 μl solution of anti-Rho-kinase antibody in PBS(−). After allowed to stand for additional 1.5 hours at room temperature, the plate was washed three times with 200 μl of PBST. Into the plate was placed 50 μl of 1.5 mg/ml bovine brain lysates, and the resultant plate was allowed to stand overnight at 4° C. This was washed twice with 200 μl of PBST, and once with 200 μl of PBS(−) to provide an immobilized plate.
Various concentrations of the antigen peptide used to prepare the anti-Rho-kinase antibody were supplemented to the bovine brain extract, and then Rho-kinase in the extract was immobilized onto the plate under the optimal conditions as found in Example 5. […]

T2 sequence (Q62868 11-552 limits assumed): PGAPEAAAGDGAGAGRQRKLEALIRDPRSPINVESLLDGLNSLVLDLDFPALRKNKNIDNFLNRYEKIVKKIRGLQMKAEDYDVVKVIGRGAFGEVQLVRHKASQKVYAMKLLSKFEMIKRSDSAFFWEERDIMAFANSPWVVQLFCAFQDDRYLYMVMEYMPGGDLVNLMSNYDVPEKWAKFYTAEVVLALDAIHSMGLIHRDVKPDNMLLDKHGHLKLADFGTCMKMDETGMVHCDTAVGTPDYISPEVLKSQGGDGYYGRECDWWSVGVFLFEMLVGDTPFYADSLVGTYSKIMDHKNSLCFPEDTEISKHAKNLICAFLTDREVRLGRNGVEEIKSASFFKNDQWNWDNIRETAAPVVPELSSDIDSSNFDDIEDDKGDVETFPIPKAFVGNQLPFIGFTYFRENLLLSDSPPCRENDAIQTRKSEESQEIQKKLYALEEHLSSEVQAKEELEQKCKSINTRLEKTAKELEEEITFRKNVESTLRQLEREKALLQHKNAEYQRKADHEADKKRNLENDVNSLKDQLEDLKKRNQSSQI
T1 sequence (Q28021 whole entry): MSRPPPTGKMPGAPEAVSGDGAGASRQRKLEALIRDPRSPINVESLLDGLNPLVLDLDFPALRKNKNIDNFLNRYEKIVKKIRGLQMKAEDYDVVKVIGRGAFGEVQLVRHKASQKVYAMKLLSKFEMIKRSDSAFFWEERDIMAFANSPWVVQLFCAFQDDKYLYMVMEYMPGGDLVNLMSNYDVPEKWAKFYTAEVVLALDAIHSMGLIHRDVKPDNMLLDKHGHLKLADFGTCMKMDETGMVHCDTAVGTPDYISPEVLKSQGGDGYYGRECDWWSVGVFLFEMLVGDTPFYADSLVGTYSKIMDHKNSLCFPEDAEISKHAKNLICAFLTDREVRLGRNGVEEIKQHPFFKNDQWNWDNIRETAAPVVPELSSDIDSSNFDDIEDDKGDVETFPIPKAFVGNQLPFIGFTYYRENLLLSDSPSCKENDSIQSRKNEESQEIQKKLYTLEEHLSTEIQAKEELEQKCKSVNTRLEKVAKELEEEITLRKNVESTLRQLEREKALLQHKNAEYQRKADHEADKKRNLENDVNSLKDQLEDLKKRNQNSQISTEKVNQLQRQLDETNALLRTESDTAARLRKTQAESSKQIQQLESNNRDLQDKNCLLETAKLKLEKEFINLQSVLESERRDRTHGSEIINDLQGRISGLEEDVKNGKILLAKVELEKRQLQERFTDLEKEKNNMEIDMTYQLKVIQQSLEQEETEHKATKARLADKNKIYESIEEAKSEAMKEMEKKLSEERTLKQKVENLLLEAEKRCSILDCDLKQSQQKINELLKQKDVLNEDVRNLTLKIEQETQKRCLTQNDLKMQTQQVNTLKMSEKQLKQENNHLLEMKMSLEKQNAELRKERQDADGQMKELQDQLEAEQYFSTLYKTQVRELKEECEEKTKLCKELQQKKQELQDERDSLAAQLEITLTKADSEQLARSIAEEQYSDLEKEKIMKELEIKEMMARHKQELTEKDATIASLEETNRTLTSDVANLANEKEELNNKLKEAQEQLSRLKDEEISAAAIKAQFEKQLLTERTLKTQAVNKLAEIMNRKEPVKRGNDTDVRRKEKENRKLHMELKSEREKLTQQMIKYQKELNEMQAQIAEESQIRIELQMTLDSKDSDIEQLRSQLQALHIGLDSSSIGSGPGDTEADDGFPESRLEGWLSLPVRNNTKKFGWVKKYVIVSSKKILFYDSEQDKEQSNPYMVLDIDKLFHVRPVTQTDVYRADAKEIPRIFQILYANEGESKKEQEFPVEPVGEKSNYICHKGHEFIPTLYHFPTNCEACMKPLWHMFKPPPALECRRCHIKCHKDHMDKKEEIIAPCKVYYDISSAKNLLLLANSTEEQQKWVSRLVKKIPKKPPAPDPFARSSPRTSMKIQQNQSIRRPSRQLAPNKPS

By Ki is commonly meant a dissociation constant, usually derived from enzyme kinetics or from competition with a known ligand. On to `C[C@@H](N)[C@H]1CC[C@H](C(=O)Nc2ccncc2)CC1` [Y-27632], for which the IC50 against Rho-kinase [1] (IC50 value, bovine brain) is 350 nM; on ROKa/ROK-II, active Cat, 790 nM. Moreover, the Ki on Rho-kinase [2] is 140 nM.

Take `COc1ccc2c(c[n+](C)c3c4cc5c(cc4ccc23)OCO5)c1OC` [chelerythrine]: the IC50 worked out at 20000 nM on Rho-kinase [1] (read-out: IC50 value, bovine brain) and 11000 nM at ROKa/ROK-II, active Cat (similar assay condition, read-out: IC50 value, ROKa/ROK-II active Cat).

For “IQQNQSIRRPSRQLAPNKPS [antigen peptide, 20 amino acid C-terminal partial peptide of Rho-kinase used to prepare the anti-Rho-kinase antibody]”, the “inhibition of the immobilization of Rho-kinase” value in the experiment with Rho-kinase [3] (3.5 μM of the peptide) was around 100%. Also, at Rho-kinase [3] (peptide supplemented to bovine brain extract, read-out: IC50 value, inhibition of immobilization of Rho-kinase), the IC50 is 350 nM.
